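Five compound concentrations were applied to cells in 96-well plates for 48 hours; endpoints were derived by simple linear interpolation of the resulting dose-response curve. TGI: concentration producing complete growth inhibition.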
Tests used:
Assay in all cases: DTP human tumour cell line panel, 48 h
M14 melanoma = tested on: M14 melanoma
ACHN renal = tested on: ACHN renal
DMS 273 small cell lung = tested on: DMS 273 small cell lung
OVCAR-3 ovarian = tested on: OVCAR-3 ovarian
SNB-75 CNS = tested on: SNB-75 CNS
U251 CNS = tested on: U251 CNS
LXFL 529 NSCLC = tested on: LXFL 529 NSCLC
DMS 114 small cell lung = tested on: DMS 114 small cell lung
SNB-78 CNS = tested on: SNB-78 CNS
UO-31 renal = tested on: UO-31 renal
COLO 205 colon = tested on: COLO 205 colon
HOP-18 NSCLC = tested on: HOP-18 NSCLC
HT29 colon = tested on: HT29 colon
HOP-92 NSCLC = tested on: HOP-92 NSCLC
MOLT-4 leukemia = tested on: MOLT-4 leukemia
NCI-H226 lung = tested on: NCI-H226 lung
SN12C renal = tested on: SN12C renal
SK-MEL-5 melanoma = tested on: SK-MEL-5 melanoma
M19-MEL melanoma = tested on: M19-MEL melanoma
SW-620 colon = tested on: SW-620 colon
HL-60(TB) leukemia = tested on: HL-60(TB) leukemia
IGROV1 ovarian = tested on: IGROV1 ovarian
UACC-62 melanoma = tested on: UACC-62 melanoma
OVCAR-8 ovarian = tested on: OVCAR-8 ovarian
SF-268 CNS = tested on: SF-268 CNS
SNB-19 CNS = tested on: SNB-19 CNS
CCRF-CEM leukemia = tested on: CCRF-CEM leukemia
TK-10 renal = tested on: TK-10 renal
786-0 renal = tested on: 786-0 renal
KM12 colon = tested on: KM12 colon
A549 NSCLC = tested on: A549 NSCLC
CAKI-1 renal = tested on: CAKI-1 renal
HCT-15 colon = tested on: HCT-15 colon
EKVX NSCLC = tested on: EKVX NSCLC
NCI-H522 lung = tested on: NCI-H522 lung
XF 498 CNS = tested on: XF 498 CNS
SK-MEL-28 melanoma = tested on: SK-MEL-28 melanoma
K-562 leukemia = tested on: K-562 leukemia
SR leukemia = tested on: SR leukemia
MALME-3M melanoma = tested on: MALME-3M melanoma
HCC-2998 colon = tested on: HCC-2998 colon
HCT-116 colon = tested on: HCT-116 colon
SK-MEL-2 melanoma = tested on: SK-MEL-2 melanoma
RXF 393 renal = tested on: RXF 393 renal
NCI-H460 lung = tested on: NCI-H460 lung
OVCAR-4 ovarian = tested on: OVCAR-4 ovarian
KM20L2 colon = tested on: KM20L2 colon
NCI-H23 lung = tested on: NCI-H23 lung
UACC-257 melanoma = tested on: UACC-257 melanoma
A498 renal = tested on: A498 renal
SK-OV-3 ovarian = tested on: SK-OV-3 ovarian
HOP-62 NSCLC = tested on: HOP-62 NSCLC
SF-539 CNS = tested on: SF-539 CNS
OVCAR-5 ovarian = tested on: OVCAR-5 ovarian
SF-295 CNS = tested on: SF-295 CNS
LOX IMVI melanoma = tested on: LOX IMVI melanoma
RPMI-8226 leukemia = tested on: RPMI-8226 leukemia
DLD-1 colon = tested on: DLD-1 colon

For `Cc1cc(OCC(O)CO)ccc1-c1ccccc1` (stereo unspecified), the TGI (M14 melanoma) was greater than 100 µM, the TGI (ACHN renal) was greater than 100 µM and the TGI (DMS 273 small cell lung) was greater than 100 µM. It also gave a TGI (OVCAR-3 ovarian) greater than 100 µM, a TGI (SNB-75 CNS) greater than 100 µM and a TGI (U251 CNS) greater than 100 µM. For the same compound, the TGI (LXFL 529 NSCLC) was greater than 100 µM, the TGI (DMS 114 small cell lung) was greater than 100 µM and the TGI (SNB-78 CNS) was greater than 100 µM. It also gave a TGI (UO-31 renal) greater than 100 µM, a TGI (COLO 205 colon) greater than 100 µM and a TGI (HOP-18 NSCLC) greater than 100 µM. For the same compound, the TGI (HT29 colon) was greater than 100 µM, the TGI (HOP-92 NSCLC) was greater than 100 µM and the TGI (MOLT-4 leukemia) was greater than 100 µM. It also gave a TGI (NCI-H226 lung) greater than 100 µM, a TGI (SN12C renal) greater than 100 µM and a TGI (SK-MEL-5 melanoma) greater than 100 µM. It also gave a TGI (M19-MEL melanoma) greater than 100 µM, a TGI (SW-620 colon) of 23.7 µM and a TGI (HL-60(TB) leukemia) greater than 100 µM. For the same compound, the TGI (IGROV1 ovarian) was greater than 100 µM, the TGI (UACC-62 melanoma) was greater than 100 µM and the TGI (OVCAR-8 ovarian) was greater than 100 µM. For the same compound, the TGI (SF-268 CNS) was greater than 100 µM, the TGI (SNB-19 CNS) was greater than 100 µM and the TGI (CCRF-CEM leukemia) was greater than 100 µM. It also gave a TGI (TK-10 renal) greater than 100 µM, a TGI (786-0 renal) greater than 100 µM and a TGI (KM12 colon) greater than 100 µM. It also gave a TGI (A549 NSCLC) greater than 100 µM, a TGI (CAKI-1 renal) greater than 100 µM and a TGI (HCT-15 colon) greater than 100 µM. The TGI (EKVX NSCLC) was greater than 100 µM, the TGI (NCI-H522 lung) was greater than 100 µM and the TGI (XF 498 CNS) was greater than 100 µM. The TGI (SK-MEL-28 melanoma) was greater than 100 µM, the TGI (K-562 leukemia) was greater than 100 µM and the TGI (SR leukemia) was greater than 100 µM. For the same compound, the TGI (MALME-3M melanoma) was greater than 100 µM, the TGI (HCC-2998 colon) was greater than 100 µM and the TGI (HCT-116 colon) was greater than 100 µM. It also gave a TGI (SK-MEL-2 melanoma) greater than 100 µM, a TGI (RXF 393 renal) of 87.1 µM and a TGI (NCI-H460 lung) greater than 100 µM. For the same compound, the TGI (OVCAR-4 ovarian) was greater than 100 µM, the TGI (KM20L2 colon) was greater than 100 µM and the TGI (NCI-H23 lung) was greater than 100 µM. For the same compound, the TGI (UACC-257 melanoma) was greater than 100 µM and the TGI (A498 renal) was 80.4 µM.
For `COC1CC2C3/C(=N/Nc4ccc([N+](=O)[O-])cc4[N+](=O)[O-])CCC2(C)C3C1` (stereo unspecified), the TGI (M14 melanoma) was greater than 10 µM, the TGI (ACHN renal) was greater than 10 µM and the TGI (DMS 273 small cell lung) was greater than 10 µM. For the same compound, the TGI (OVCAR-3 ovarian) was greater than 10 µM, the TGI (SNB-75 CNS) was greater than 10 µM and the TGI (U251 CNS) was greater than 10 µM. The TGI (LXFL 529 NSCLC) was greater than 10 µM, the TGI (SK-OV-3 ovarian) was greater than 10 µM and the TGI (DMS 114 small cell lung) was greater than 100 µM. For the same compound, the TGI (HOP-62 NSCLC) was greater than 10 µM, the TGI (UO-31 renal) was greater than 10 µM and the TGI (COLO 205 colon) was greater than 10 µM. It also gave a TGI (HOP-18 NSCLC) greater than 10 µM, a TGI (HT29 colon) greater than 10 µM and a TGI (HOP-92 NSCLC) greater than 10 µM. The TGI (MOLT-4 leukemia) was greater than 100 µM, the TGI (NCI-H226 lung) was greater than 10 µM and the TGI (SN12C renal) was greater than 10 µM. It also gave a TGI (SK-MEL-5 melanoma) greater than 10 µM, a TGI (M19-MEL melanoma) greater than 10 µM and a TGI (SF-539 CNS) greater than 10 µM. It also gave a TGI (OVCAR-5 ovarian) greater than 10 µM, a TGI (SW-620 colon) greater than 10 µM and a TGI (HL-60(TB) leukemia) greater than 100 µM. For the same compound, the TGI (IGROV1 ovarian) was greater than 10 µM, the TGI (UACC-62 melanoma) was greater than 10 µM and the TGI (OVCAR-8 ovarian) was greater than 100 µM. It also gave a TGI (SF-268 CNS) greater than 100 µM, a TGI (SNB-19 CNS) greater than 10 µM and a TGI (TK-10 renal) greater than 100 µM. The TGI (786-0 renal) was greater than 10 µM, the TGI (SF-295 CNS) was greater than 10 µM and the TGI (KM12 colon) was greater than 100 µM. For the same compound, the TGI (LOX IMVI melanoma) was greater than 10 µM, the TGI (A549 NSCLC) was greater than 100 µM and the TGI (CAKI-1 renal) was greater than 10 µM. For the same compound, the TGI (HCT-15 colon) was greater than 100 µM, the TGI (RPMI-8226 leukemia) was greater than 100 µM and the TGI (NCI-H522 lung) was greater than 10 µM. The TGI (XF 498 CNS) was greater than 100 µM, the TGI (SK-MEL-28 melanoma) was greater than 100 µM and the TGI (K-562 leukemia) was greater than 100 µM. It also gave a TGI (SR leukemia) greater than 100 µM, a TGI (MALME-3M melanoma) greater than 10 µM and a TGI (HCC-2998 colon) greater than 10 µM. The TGI (HCT-116 colon) was greater than 100 µM, the TGI (SK-MEL-2 melanoma) was greater than 10 µM and the TGI (DLD-1 colon) was greater than 10 µM. The TGI (NCI-H460 lung) was greater than 100 µM, the TGI (OVCAR-4 ovarian) was greater than 10 µM and the TGI (KM20L2 colon) was greater than 10 µM. The TGI (NCI-H23 lung) was greater than 10 µM, the TGI (UACC-257 melanoma) was greater than 100 µM and the TGI (A498 renal) was greater than 10 µM.
In the case of `OCc1nnn2c1CCC2`, the TGI (M14 melanoma) is reported as greater than 100 µM, the TGI (ACHN renal) is reported as greater than 100 µM and the TGI (OVCAR-3 ovarian) is reported as greater than 100 µM. It also gave a TGI (SNB-75 CNS) greater than 100 µM, a TGI (U251 CNS) greater than 100 µM and a TGI (LXFL 529 NSCLC) greater than 100 µM. For the same compound, the TGI (SK-OV-3 ovarian) was greater than 100 µM, the TGI (SNB-78 CNS) was greater than 100 µM and the TGI (HOP-62 NSCLC) was greater than 100 µM. The TGI (UO-31 renal) was greater than 100 µM, the TGI (HOP-18 NSCLC) was greater than 100 µM and the TGI (HT29 colon) was greater than 100 µM. It also gave a TGI (HOP-92 NSCLC) greater than 100 µM, a TGI (MOLT-4 leukemia) greater than 100 µM and a TGI (SN12C renal) greater than 100 µM. It also gave a TGI (SK-MEL-5 melanoma) greater than 100 µM, a TGI (M19-MEL melanoma) greater than 100 µM and a TGI (SF-539 CNS) greater than 100 µM. It also gave a TGI (OVCAR-5 ovarian) greater than 100 µM, a TGI (SW-620 colon) greater than 100 µM and a TGI (HL-60(TB) leukemia) greater than 100 µM. The TGI (IGROV1 ovarian) was greater than 100 µM, the TGI (UACC-62 melanoma) was greater than 100 µM and the TGI (OVCAR-8 ovarian) was greater than 100 µM. The TGI (CCRF-CEM leukemia) was greater than 100 µM, the TGI (TK-10 renal) was greater than 100 µM and the TGI (SF-295 CNS) was greater than 100 µM. The TGI (KM12 colon) was greater than 100 µM, the TGI (LOX IMVI melanoma) was greater than 100 µM and the TGI (A549 NSCLC) was greater than 100 µM. It also gave a TGI (HCT-15 colon) greater than 100 µM, a TGI (EKVX NSCLC) greater than 100 µM and a TGI (NCI-H522 lung) greater than 100 µM. It also gave a TGI (XF 498 CNS) greater than 100 µM, a TGI (SK-MEL-28 melanoma) greater than 100 µM and a TGI (K-562 leukemia) greater than 100 µM. For the same compound, the TGI (SR leukemia) was greater than 100 µM, the TGI (MALME-3M melanoma) was greater than 100 µM and the TGI (HCC-2998 colon) was greater than 100 µM. The TGI (SK-MEL-2 melanoma) was greater than 100 µM, the TGI (DLD-1 colon) was greater than 100 µM and the TGI (RXF 393 renal) was greater than 100 µM. For the same compound, the TGI (NCI-H460 lung) was greater than 100 µM, the TGI (OVCAR-4 ovarian) was greater than 100 µM and the TGI (KM20L2 colon) was greater than 100 µM. The TGI (NCI-H23 lung) was greater than 100 µM and the TGI (UACC-257 melanoma) was greater than 100 µM.

— PubChem BioAssay (NCI)
